Assay: Evaluation of water solubility of deprotected pterostilbene linked bodies
Type: physicochemical
Settings: ion-exchanged water; solubility threshold could not be measured because the compound was extremely water-soluble
Protocol: The deprotected pterostilbene linked body obtained in Examples were evaluated for water solubility using the following method. In FIGs 1 and 2, the numbers in the ellipses for each compound represent a level of water solubility as a molar ratio, with the water solubility of F1 (pterostilbene) (21 mg (0.0819 mmol) dissolved in 1 liter) being set at 1.0. The water solubility of F1 (pterostilbene) was determined using the value described in Sarah J. Bethune et al., Cryst. Growth Des. 2011, 11, 2817-2823. The water solubility of F1 glycoside (pterostilbene monoglycoside) was determined using the value described in Jose L. Gonzalez-Alfonso et al., Molecules 2018, 23, 1271.
Into a round-bottom flask was weighed 1.0 g of the compound and 100 mL of ion-exchanged water in sequence and the mixture was heated with a heat gun for about 1 minute, taking care not to boil the mixture, and then cooled to room temperature and allowed to stand. After 24 hours, the residue was removed by filtration, and the filtrate was concentrated under reduced pressure. A water solubility of each compound was calculated from the weight of the compound recovered from the filtrate.
In a round-bottom flask, a solution was prepared the amounts of the compound and ion-exchanged water shown in Figure 1, and a water solubility of the compound was calculated. Because the compound was extremely water-soluble, a water solubility threshold could not be measured. However, compared to the hardly water-soluble F1, its water solubility was 2×10^4 times or more, that is, extremely higher.

| water solubility compared to the hardly water-soluble F1 | Compound |
| --- | --- |
| ≥ 2×10^4 times | COc1cc(/C=C/c2ccc(OCC(CO)(CO)COC(COCC(O)CO)COCC(O)CO)cc2)cc(OC)c1 (stereo not drawn) [J239, (E)-3,3'-((2-(3-(4-(3,5-dimethoxystyryl)phenoxy)-2,2-bis(hydroxymethyl)propoxy)propane-1,3-diyl)bis(oxy))bis(propane-1,2-diol)] |
| ≥ 2×10^4 times | COc1cc(/C=C/c2ccc(OCC(CO)(CO)COC(COCC(CO)(CO)CO)COCC(CO)(CO)CO)cc2)cc(OC)c1 [J219, (E)-2,2'-(((2-(3-(4-(3,5-dimethoxystyryl)phenoxy)-2,2-bis(hydroxymethyl)propoxy)propane-1,3-diyl)bis(oxy))bis(methylene))bis(2-(hydroxymethyl)propane-1,3-diol)] |
| ≥ 2×10^4 times | COc1cc(/C=C/c2ccc(OCC(COC(CO)CO)(COC(CO)CO)COC(CO)CO)cc2)cc(OC)c1 [H129, (E)-2,2'-((2-(((1,3-dihydroxypropan-2-yl)oxy)methyl)-2-((4-(3,5-dimethoxystyryl)phenoxy)methyl)propane-1,3-diyl)bis(oxy))bis(propane-1,3-diol)] |
| ≥ 2×10^4 times | COc1cc(/C=C/c2ccc(OCC(CO)(CO)COC(COC(CO)CO)COC(CO)CO)cc2)cc(OC)c1 [J229, (E)-2,2'-((2-(3-(4-(3,5-dimethoxystyryl)phenoxy)-2,2-bis(hydroxymethyl)propoxy)propane-1,3-diyl)bis(oxy))bis(propane-1,3-diol)] |
| ≥ 2×10^4 times | COc1cc(/C=C/c2ccc(OCC(CO)(CO)COCC(COCC(CO)(CO)CO)(COCC(CO)(CO)CO)COCC(CO)(CO)CO)cc2)cc(OC)c1 [J119, (E)-2,2'-(((2-((3-(4-(3,5-dimethoxystyryl)phenoxy)-2,2-bis(hydroxymethyl)propoxy)methyl)-2-((3-hydroxy-2,2-bis(hydroxymethyl)propoxy)methyl)propane-1,3-diyl)bis(oxy))bis(methylene))bis(2-(hydroxymethyl)propane-1,3-diol)] |
| ≥ 2×10^4 times | COc1cc(/C=C/c2ccc(OCC(CO)(CO)COCC(COC(CO)CO)(COC(CO)CO)COC(CO)CO)cc2)cc(OC)c1 [J129, (E)-2,2'-((2-(((1,3-dihydroxypropan-2-yl)oxy)methyl)-2-((3-(4-(3,5-dimethoxystyryl)phenoxy)-2,2-bis(hydroxymethyl)propoxy)methyl)propane-1,3-diyl)bis(oxy))bis(propane-1,3-diol)] |
| ≥ 2×10^4 times | COc1cc(/C=C/c2ccc(OCC(CO)(CO)COCC(COCC(O)CO)(COCC(O)CO)COCC(O)CO)cc2)cc(OC)c1 (stereo not drawn) [J139, (E)-3,3'-((2-((2,3-dihydroxypropoxy)methyl)-2-((3-(4-(3,5-dimethoxystyryl)phenoxy)-2,2-bis(hydroxymethyl)propoxy)methyl)propane-1,3-diyl)bis(oxy))bis(propane-1,2-diol)] |
| ≥ 2×10^4 times | COc1cc(/C=C/c2ccc(OCC(COCC(O)CO)(COCC(O)CO)COCC(O)CO)cc2)cc(OC)c1 (stereo not drawn) [H139, (E)-3,3'-((2-((2,3-dihydroxypropoxy)methyl)-2-((4-(3,5-dimethoxystyryl)phenoxy)methyl)propane-1,3-diyl)bis(oxy))bis(propane-1,2-diol)] |

Same assay, conditions: water solubility of F1 (pterostilbene) set at 1.0 (reference)

| level of water solubility as a molar ratio | Compound |
| --- | --- |
| 1.0 | COc1cc(/C=C/c2ccc(O)cc2)cc(OC)c1 [F1, (E)-4-(3,5-dimethoxystyryl)phenol, reference compound] |
